Values after ≈ are worked out from the molar mass of the structure shown. Like-named read-outs stand apart in the source and are kept apart here. Ends that are not written are not given here.
How the values were obtained:
[1] = tested on: Escherichia coli MG1655; type: cell-based
Protocol: (§1) Escherichia coli MG1655 was grown in Luria-Bertani (LB) broth at 37°C with aeration at 220 rpm in 50-ml tubes. Two hundred microliters of overnight culture was resuspended into 15 ml fresh LB broth, cultured under the same conditions for an additional 2 h, and then used for subsequent assays. Mueller-Hinton (MH) broth was used for the assay of MICs and time-killing curves.
According to a standard protocol ([35]), stock solutions of AMPs were diluted in MH broth and then diluted in 96-well plates with a 2-fold gradient, that is, from 0.25 μg/ml to 128 μg/ml. All the gradients of antibiotics were from 0.02 μg/ml to 50 μg/ml, except that the gradient of ciprofloxacin was from 0.002 μg/ml to 1 μg/ml. Approximately 5 × 10^5 log-phase bacteria were added to each well. A positive control containing MH broth and bacteria and a negative control containing only MH broth were included in each plate, and plates were incubated at 37°C overnight.

[2] = tested on: Escherichia coli MG1655; assay: Killing curves fitted to the Hill function (pharmacodynamic parameters); type: cell-based; conditions: brackets = 95% confidence interval
Protocol: as §1
Thus, Loewe additivity would result in a MIC of any one combination equal to the MIC of the individual drugs (see equations 5 and 6). Thus, 21 two-AMP combinations and 20 three-AMP combinations were generated. An AMP(s) was diluted, starting with 100× MIC, in a 96-well plate to form a 2-fold gradient of concentrations, and 2 × 10^6 log-phase bacteria were added to a total volume of 100 μl. The plates were incubated at 37°C. Killing was assessed within 1 h, as killing by AMPs is very fast ([36], [37]). Ten microliters of a mixture of AMPs and bacteria was taken out every 20 min and then immediately diluted in saline solution and plated on the solid agar plates. These solid agar plates were transferred into a 37°C incubator and cultured overnight for CFU determination. The limit of detection in our system is 100 CFUs.
To model the killing curve, the relationship between the concentration of AMP(s) and the killing and/or growth rate of exposed bacteria, we used a Hill function ([26]): (1) μ(a)=Emax (a/EC50)^κ/1+(a/EC50)^κ Here, μ(a) is the killing rate at a given concentration of AMP(s); a is a given concentration; Emax is the maximal killing rate of the given AMP(s). κ is the Hill coefficient. We then defined growth rate ψ(a) as follows: (2) ψ(a)=ψmax −μ(a) Here, ψmax is the maximal growth rate of bacteria without AMP(s). The maximum effect of AMP(s) is defined by (3) Emax =ψmax −ψmin Thus, the effect of AMP(s) in a given concentration, μ(a), can be rewritten as (4) μ(a)=(ψmax −ψmin )(a/zMIC)^κ/(a/zMIC)^κ−ψmin /ψmax zMIC is the estimated MIC. Growth rate and killing rate of bacteria are estimated from the time-kill curves as the change of CFU over time by using generalized linear regression. […]

[3] = E. coli MG1655, MH broth, 96-well plates, 2-fold gradient 0.25 to 128 μg/ml, approx. 5 × 10^5 log-phase bacteria per well, 37°C overnight

Row | Compound | MIC [1, 3] [µg/mL] | further results
1 | CC[C@H](C)[C@H](N)C(=O)N[C@@H](CC(C)C)C(=O)N1CCC[C@H]1C(=O)N[C@@H](Cc1c[nH]c2ccccc12)C(=O)N[C@@H](CCCCN)C(=O)N[C@@H](Cc1c[nH]c2ccccc12)C(=O)N1CCC[C@H]1C(=O)N[C@@H](Cc1c[nH]c2ccccc12)C(=O)N[C@@H](Cc1c[nH]c2ccccc12)C(=O)N1CCC[C@H]1C(=O)N[C@@H](Cc1c[nH]c2ccccc12)C(=O)N[C@@H](CCCNC(=N)N)C(=O)N[C@@H](CCCNC(=N)N)C(N)=O [Ind, Indolicidin] | 4 (≈ 2.1 µM) | 
2 | FKRIVQRIKDFLR [LL, LL 17-29] |  | MIC ([1]; MG1655, 2 h): 16 µg/mL
3 | GIGKFLKKAKKFGKAFVKILKK-NH2 [Pex, pexiganan] | 2 | 
4 | GNNRPVYIPQPRPPHPRL [Api, Apidaecin IB] | 4 | 
5 | KWKLFKKIEKVGQNIRDGIIKAGPAVAVVGQATQIAK-NH2 [Cec, Cecropin A] | 1 | κ (lower,upper) ([2]; Hill coefficient (steepness of pharmacodynamic curve), Hill function fit (MCMC) of time-kill data, E. coli MG1655, 37°C, within 1 h): 6.02(5.17,6.84); zMIC (lower,upper) ([2]; estimated MIC from Hill function fit (MCMC) of time-kill data, 2-fold gradient from 100× MIC, 2 × 10^6 log-phase bacteria in 100 μl, 37°C, CFU every 20 min within 1 h, combinations 1:1 or 1:1:1 by volume): 0.32(0.28,0.37) times of original MIC; ψmin (lower,upper) ([2]; minimal growth rate of bacteria, Hill function fit (MCMC) of time-kill data, E. coli MG1655, 37°C, within 1 h): -5.83(-5.89,-5.77)

Reference: PMC4775937, “Combination Effects of Antimicrobial Peptides” (Antimicrobial Agents and Chemotherapy, 2016)
